From patent US8207136B2, “Nucleoside compounds and methods of use thereof” (The Board of Trustees of the University of Illinois, priority 2005, dated 2012) come the findings set out here.

In test [1] the test system is LIM1215 colon cancer cells. Kind of test: Apoptosis by PI staining and flow cytometry in LIM1215 cells. In kind it is cell-based, human. How it is done: (§1) For Flow Cytometry, cells were fixed in 70% ethanol and stored at −20° C. until further analysis. Equal numbers of fixed cells were then stained with PI solution (0.1% Triton X-100, 0.2 mg/ml DNase free RNase, 0.02 mg/ml propidium iodide) made in PBS for 15 min at 37° C. and analyzed by a flow cytometer.
In order to evaluate the extent to which ARC induces apoptosis relative to that of the other known nucleoside analog DRB, LIM1215 colon cancer cells were treated with either ARC or DRB for 48 hours.
Background: A flow cytometer gives signals particle by particle.

In test [2] the test system is RNA polymerase II transcription. Kind of test: Nuclear run-on assay, nuclei from treated HCT-116 cells. Format: cell-based, human. The conditions noted are these: HCT-116 cells treated 2 hours with 1 mM. How it is done: Run-on assays with isolated nuclei were performed as described. Briefly, cells treated with the indicated agents were lysed with hypotonic buffer (10 mM Tris-HCl pH 7.4, 10 mM NaCl and 35 mM MgCl2) and nuclei collected by centrifugation and resuspended in nuclear storage buffer (50 mM HEPES pH 8.0, 5 mM MgCl2, 0.5 mM DTT, 1 mg/ml BSA and 25% (v/v) glycerol) at about 5×10^8 nuclei/ml and stored at −80° C. Transcription reactions were performed in 200 μl volume consisting of 1×10^7 nuclei in the presence of 0.12 M KCl, 7 mM Mg(Ac)2, 25 μCi of [^32P]GTP, 500 μM ATP, UTP and CTP at 30° C. Samples were collected at various time points (18 μl/time point—0, 5, 10, 20 and 30 min) and the reaction terminated by the addition of 57 μl of Sarkosyl solution (1% Sarkosyl, 0.1 M Tris pH 8.0, 0.1 M NaCl, 10 mM EDTA and 200 μg/ml tRNA). The stopped reactions were transferred to Whatman DE81 paper, and washed four times with wash buffer (5% K2HPO4 and 0.3% Na4P2O7) for 10 min, followed by a 5-min water wash. Then the paper was briefly rinsed with 95% ethanol and allowed to dry completely. Radiation was quantitated using a liquid scintillation counter.
Some transcriptional inhibitors such as DRB and flavopiridol repress p21 and hdm2 while increasing p53 levels. […] To evaluate this activity, HCT-116 cells were treated with one of DMSO (control), ARC or DRB, and nuclei were isolated. These nuclei were assayed for rate of transcription either in the presence or absence of α-amanitin using the nuclear run-on assay. […] If ARC inhibits polymerase I and III transcription, the rate of transcription should be substantially lower in the ARC+α-amanitin (FIG. 2A; curve 5) when compared with DMSO+α-amanitin (FIG. 2A; curve 4). However both of these rates of transcription were similar, implying that ARC might preferentially affect only RNA polymerase II transcription.

In test [3] the test system is LIM1215 colon cancer, AGS gastric cancer and HepG2 liver cancer cells. Kind of test: Cleaved caspase-3 immunoblot in cancer cell lines of different origin. Format: cell-based, human. To be noted: 48 hours. How it is done: (§2) Immunoblotting was performed as described with antibodies specific for p53 (sc-126 HRP; Santa Cruz), hdm2 (sc-965; Santa Cruz), p21 (556431; BD Pharmingen), Sp1 (sc-59; Santa Cruz), survivin (sc-10811; Santa Cruz), phospho RNA polymerase II (4735; Cell Signaling), total RNA polymerase II (8WG16; a gift from Dr. Schlegel, University of Illinois at Chicago), α-tubulin (T9026; Sigma), cleaved caspase-3 (9664; Cell Signaling), caspase-9 (9502; Cell Signaling) and β-actin (A5441; Sigma) antibodies.
(In general: A western blot detects proteins with antibodies after separation by electrophoresis.)

For test [4], the system named is wild type MRC-5 human fetal lung fibroblasts. Kind of test: Apoptosis and cell cycle assays in wild type MRC-5 fibroblasts. Format: cell-based. To be noted: for cell cycle profile: 20 μM. On the procedure:
as §2
(§3) Apoptosis was detected either by DAPI (4′,6-diamidino-2-phenylindole) staining or by Flow Cytometry after PI (Propidium Iodide) staining. For DAPI staining, all treatments (DMSO or ARC) were done in triplicates in 6-well plates and cells were stained with DAPI and visualized by fluorescent microscopy. Four random fields for each sample were photographed and at least 500 cells per field were counted to estimate apoptosis. The data is represented as mean±Standard deviation (sd).
as §1
The ability of ARC to induce apoptosis in wild type and SV40-transformed MRC-5 human fetal lung fibroblasts was evaluated. Twenty-four hours after treatment with ARC, transformed fibroblasts underwent robust apoptosis (around 50% and 70%, respectively, with 5 and 10 μM of ARC) (FIGS. 4A and B). […] The transformed cell types may be more dependent on the survivin levels for their survival than their wild type counterparts and thus the reduction in these levels could be lethal to these cells.
Moreover, the effect of 20 μM ARC treatment on wild type fibroblasts was analyzed and little change was found in the cell cycle profile after 24 hours (data not shown) and the cells undergo G2-arrest after 48 hours (FIG. 4D).

Test [5] relates to MCF-7 breast cancer cells. Kind of test: Apoptosis assays in MCF-7 breast cancer cells. In kind it is cell-based, human. On the procedure:
as §2, §3
In order to further characterize ARC with respect to its apoptotic potential, cell lines derived from cancers of different origin were utilized. MCF-7 breast cancer cells underwent apoptosis (around 45% and 55%, respectively, with 10 and 20 μM of ARC) after 24 hours of treatment (FIGS. 5A and 5B). […] To evaluate the extent to which ARC-mediated apoptosis is p53-dependent, an MCF-7 cell line that stably expresses a short hairpin RNA (shRNA) targeting p53 (MCF-7-p53si) was used.

A value given as a limit tells only on which side of the number the result lay.

As for `NNc1c(C(N)=O)c2c(N)ncnc2n1[C@@H]1O[C@H](CO)[C@@H](O)[C@H]1O` [ARC, 4-amino-6-hydrazino-7-beta-D-ribofuranosyl-7H-pyrrolo[2,3-d]-pyrimidine-5-carboxamide], the “apoptosis (PI staining, flow cytometry)” value in test [1] (5 μM, 48 hours) worked out at 37.8%. For the same compound, the “efficiency in inducing apoptosis relative to DRB” value in test [1] (LIM1215 cells (FIG. 5F)) is given as > 10 fold. Besides, the “rate of transcription versus control nuclei” value in test [2] was “lower”. In addition, in test [2] (2 μg/ml α-amanitin), the “rate of transcription in the presence of α-amanitin versus DMSO+α-amanitin” value is “similar”. Also, the “cleavage of caspase-3” value is “showed cleavage of caspase-3” in test [3] (HepG2 with stable knock-down of p53, 20 μM); “cleavage of caspase-3 were detected” in test [3] (LIM1215, AGS and HepG2 cells, 20 μM). Further, the cell cycle profile entry in test [4] (24 hours) is on record as “little change”; in test [4] (48 hours), “G2-arrest”. Besides, the cell killing entry in test [4] (10 or 20 μM, 24 hours) is recorded as “not susceptible to ARC-mediated cell killing”. Further, the “apoptosis (DAPI staining)” value in test [5] (10 μM, 24 hours) is recorded as “around 45%”; in test [5] (20 μM, 24 hours), ~55%. Also, the “cleavage of caspase-9” value in test [5] (MCF-7, 24 hours) is reported as “cleavage of caspase-9 upon ARC treatment was observed”; in test [5] (MCF-7-p53si cells (shRNA targeting p53), 24 hours) it was “Cleavage of caspase-9 was detected”.
